Experimental data: patent US9556165B2 (priority 2012, dated 2017)
≈ marks a conversion by molar mass, not a printed value. Like-named read-outs stand apart in the source and are kept apart here.

Experiments:
Assay type in all cases: cell-based
K. pneumoniae 60 = test: MIC determination, broth microdilution (CLSI); details: Klebsiella pneumoniae, 60, strain 2
strain 20 = test: MIC determination, broth microdilution (CLSI)
E. coli J62 = test: MIC determination, broth microdilution (CLSI); details: Escherichia coli, J62, strain 17
[1] = test system: P. aeruginosa 2297 (AmpC wt); test: MIC determination, broth microdilution (CLSI); details: Pseudomonas aeruginosa, strain 7
P. aeruginosa PAO1 = test: MIC determination, broth microdilution (CLSI); details: Pseudomonas aeruginosa, PAO1, strain 6
strain 21 = test: MIC determination, broth microdilution (CLSI)
M. morganii 126/3048 = test: MIC determination, broth microdilution (CLSI); details: Morganella morganii, 126/3048, strain 5
E. coli ATCC25922 = test: MIC determination, broth microdilution (CLSI); details: Escherichia coli, ATCC25922, strain 1
strain 19 = test: MIC determination, broth microdilution (CLSI)
E. cloacae 34654 = test: MIC determination, broth microdilution (CLSI); details: Enterobacter cloacae, 34654, strain 3
C. freundii K21/3034 = test: MIC determination, broth microdilution (CLSI); details: Citrobacter freundii, K21/3034, strain 4
S. pneumoniae 113 = test: MIC determination, broth microdilution (CLSI)
A. baumannii ATCC15308 = test: MIC determination, broth microdilution (CLSI); details: Acinetobacter baumannii, ATCC15308, strain 9
B. fragilis 6688 = test: MIC determination, broth microdilution (CLSI); details: Bacteroides fragilis, 6688, strain 15; broth microdilution; read-out: MIC strain 15 (B. fragilis 6688)
Bacteria = test: MIC determination in combination with β-lactamase inhibitors (constant 4 μg/mL)
H. influenzae ATCC 49247 = test: MIC determination, broth microdilution (CLSI); details: Haemophilus influenzae, ATCC49247, strain 12; broth microdilution; read-out: MIC strain 12 (H. influenzae ATCC 49247)
[2] = test system: P. aeruginosa 2297-con (AmpC derepressed); test: MIC determination, broth microdilution (CLSI); details: Pseudomonas aeruginosa, read-out: strain 8 MIC, strain 8
S. maltophilia ICB7569 = test: MIC determination, broth microdilution (CLSI); details: Stenotrophomonas maltophilia, ICB7569, strain 10
E. coli J62-TEM-3 = test: MIC determination, broth microdilution (CLSI); details: Escherichia coli, J62TEM3, read-out: MIC strain 18 (E. coli J62-TEM-3), strain 18; broth microdilution
C. perfringens DSM756 = test: microbe, parasite or virus in culture; details: Clostridium perfringens, DSM756, read-out: MIC strain 16 (C. perfringens DSM756), strain 16; broth microdilution
S. aureus 133 = test: MIC determination, broth microdilution (CLSI)
[3] = broth microdilution, read-out: MIC strain 17 (E. coli J62)
[4] = Streptococcus pneumoniae, 113, strain 13, broth microdilution, read-out: MIC strain 13 (S. pneumoniae 113)
[5] = Staphylococcus aureus, 133, strain 11, read-out: strain 11 MIC
[6] = Staphylococcus aureus, 133, strain 14, broth microdilution, read-out: MIC strain 14 (S. aureus 133)

SMILES | MIC (K. pneumoniae 60) | MIC [1] | MIC (P. aeruginosa PAO1) | MIC (M. morganii 126/3048) | MIC (E. coli ATCC25922) | MIC (E. cloacae 34654) | MIC (C. freundii K21/3034) | MIC (A. baumannii ATCC15308) | MIC (B. fragilis 6688) | MIC strain 19 (E. coli J62-TEM-3 + 4 μg/mL clavulanic acid) (Bacteria) | MIC strain 20 (E. coli J62-TEM-3 + 4 μg/mL sulbactam) (Bacteria) | MIC strain 21 (E. coli J62-TEM-3 + 4 μg/mL tazobactam) (Bacteria) | MIC (E. coli J62; [3]) | MIC (H. influenzae ATCC 49247) | MIC [2] | MIC (S. maltophilia ICB7569) | MIC (E. coli J62-TEM-3) | MIC (S. pneumoniae 113; [4]) | MIC (C. perfringens DSM756) | MIC (S. aureus 133; [5]) | further results
C[C@@H]1[C@H](NC(=O)/C(=N\OCCOc2ccc(C(=N)N)cc2)c2csc(N)n2)C(=O)N1OS(=O)(=O)O [Example 10, (2Z)-2-(2-Amino-1,3-thiazol-4-yl)-2-{[2-(4-carbamimidoylphenoxy)ethoxy]imino}-N-[(2R,3S)-2-methyl-4-oxo-1-(sulfooxy)azetidin-3-yl]ethanamide] | 2 µg/mL (≈ 3.79 µM) | 8 µg/mL (≈ 15.2 µM) | 8 µg/mL (≈ 15.2 µM) | 4 µg/mL (≈ 7.58 µM) | 0.5 µg/mL (≈ 0.948 µM) | 1 µg/mL (≈ 1.9 µM) | 1 µg/mL (≈ 1.9 µM) | 8 µg/mL (≈ 15.2 µM) |  |  |  |  |  |  |  |  |  |  |  |  | MIC (strain 20): 0.5 µg/mL (≈ 0.948 µM); MIC (E. coli J62; read-out: strain 17 MIC): 0.5 µg/mL (≈ 0.948 µM); MIC (strain 21): 0.5 µg/mL (≈ 0.948 µM); MIC (strain 19): 0.5 µg/mL (≈ 0.948 µM); MIC (S. pneumoniae 113; Streptococcus pneumoniae, 113, strain 14, read-out: strain 14 MIC): 2 µg/mL (≈ 3.79 µM)
CC1(C)[C@H](NC(=O)/C(=N\O[C@@H](COc2ccc(C(=N)NC3CNCC3N)cc2)C(=O)O)c2csc(N)n2)C(=O)N1OS(=O)(=O)O (stereo partly drawn) [Example 106, (2S)-3-{4-[N-(4-Aminopyrrolidin-3-yl)carbamimidoyl]phenoxy}-2-({[(1Z)-1-(2-amino-1,3-thiazol-4-yl)-2-{[(3S)-2,2-dimethyl-4-oxo-1-(sulfooxy)azetidin-3-yl]amino}-2-oxoethylidene]amino}oxy)propanoic acid] | 0.125 µg/mL (≈ 0.187 µM) | 2 µg/mL (≈ 2.99 µM) | 1 µg/mL (≈ 1.49 µM) | ≤ 0.063 µg/mL | 0.125 µg/mL (≈ 0.187 µM) | 0.125 µg/mL (≈ 0.187 µM) | 0.125 µg/mL (≈ 0.187 µM) | 2 µg/mL (≈ 2.99 µM) | 8 µg/mL (≈ 11.9 µM) | 0.125 µg/mL | ≦0.063 mg/L | 0.125 µg/mL | 0.125 µg/mL (≈ 0.187 µM) | ≤ 0.063 µg/mL | 1 µg/mL (≈ 1.49 µM) | 4 µg/mL (≈ 5.97 µM) | 8 µg/mL (≈ 11.9 µM) | 0.5 µg/mL (≈ 0.747 µM) | 1 µg/mL (≈ 1.49 µM) | ≤ 0.063 µg/mL | 
CC1(C)[C@H](NC(=O)/C(=N\O[C@@H](COc2ccc(C(=N)NC3CNC3)cc2)C(=O)O)c2csc(N)n2)C(=O)N1OS(=O)(=O)O [Example 107, (2S)-2-({[(1Z)-1-(2-Amino-1,3-thiazol-4-yl)-2-{[(3S)-2,2-dimethyl-4-oxo-1-(sulfooxy)azetidin-3-yl]amino}-2-oxoethylidene]amino}oxy)-3-{4-[N-(azetidin-3-yl)carbamimidoyl]phenoxy}propanoic acid] | 0.125 µg/mL (≈ 0.195 µM) | 1 µg/mL (≈ 1.56 µM) | 1 µg/mL (≈ 1.56 µM) | ≤ 0.063 µg/mL | ≤ 0.063 µg/mL | 0.25 µg/mL (≈ 0.39 µM) | ≤ 0.063 µg/mL | 1 µg/mL (≈ 1.56 µM) | 8 µg/mL (≈ 12.5 µM) | ≦0.063 mg/L | ≦0.063 mg/L | ≦0.063 mg/L | 0.125 µg/mL (≈ 0.195 µM) | ≤ 0.063 µg/mL | 1 µg/mL (≈ 1.56 µM) | 4 µg/mL (≈ 6.24 µM) | 4 µg/mL (≈ 6.24 µM) | 0.5 µg/mL (≈ 0.78 µM) | 0.125 µg/mL (≈ 0.195 µM) | ≤ 0.063 µg/mL | MIC (S. aureus 133; [6]): 32 µg/mL (≈ 49.9 µM)
CC1(C)[C@H](NC(=O)/C(=N\O[C@@H](COc2ccc(C(=N)NC3CCNCC3)cc2)C(=O)O)c2csc(N)n2)C(=O)N1OS(=O)(=O)O [Example 108, (2S)-2-({[(1Z)-1-(2-Amino-1,3-thiazol-4-yl)-2-{[(3S)-2,2-dimethyl-4-oxo-1-(sulfooxy)-azetidin-3-yl]amino}-2-oxoethylidene]amino}oxy)-3-{4-[N-(piperidin-4-yl)carbamimidoyl]phenoxy}propanoic acid] | 0.125 µg/mL (≈ 0.187 µM) | 1 µg/mL (≈ 1.5 µM) | 0.5 µg/mL (≈ 0.748 µM) | ≤ 0.063 µg/mL | 0.125 µg/mL (≈ 0.187 µM) | 0.125 µg/mL (≈ 0.187 µM) | ≤ 0.063 µg/mL | 1 µg/mL (≈ 1.5 µM) | 8 µg/mL (≈ 12 µM) | ≦0.063 mg/L | ≦0.063 mg/L | 0.125 µg/mL | 0.125 µg/mL (≈ 0.187 µM) | ≤ 0.063 µg/mL | 1 µg/mL (≈ 1.5 µM) | 4 µg/mL (≈ 5.98 µM) | 4 µg/mL (≈ 5.98 µM) | 0.5 µg/mL (≈ 0.748 µM) | 1 µg/mL (≈ 1.5 µM) | ≤ 0.063 µg/mL | MIC (S. aureus 133; [6]): 32 µg/mL (≈ 47.9 µM)
CN1CC(NC(=N)c2ccc(OC[C@H](O/N=C(\C(=O)N[C@@H]3C(=O)N(OS(=O)(=O)O)C3(C)C)c3csc(N)n3)C(=O)O)cc2)C1 [Example 109] | 0.125 µg/mL (≈ 0.191 µM) | 2 µg/mL (≈ 3.05 µM) | 2 µg/mL (≈ 3.05 µM) | 0.125 µg/mL (≈ 0.191 µM) | 0.125 µg/mL (≈ 0.191 µM) | 0.125 µg/mL (≈ 0.191 µM) | 0.125 µg/mL (≈ 0.191 µM) | 2 µg/mL (≈ 3.05 µM) | 16 µg/mL (≈ 24.4 µM) | ≦0.063 mg/L | 0.25 µg/mL | 0.125 µg/mL | 0.125 µg/mL (≈ 0.191 µM) | ≤ 0.063 µg/mL | 2 µg/mL (≈ 3.05 µM) | 8 µg/mL (≈ 12.2 µM) | 2 µg/mL (≈ 3.05 µM) | 0.5 µg/mL (≈ 0.764 µM) | 4 µg/mL (≈ 6.11 µM) | ≤ 0.063 µg/mL | 
CC1(C)[C@H](NC(=O)/C(=N\O[C@@H](COc2ccc(C(=N)NCCNc3ncccn3)cc2)C(=O)O)c2csc(N)n2)C(=O)N1OS(=O)(=O)O [Example 110, (2S)-2-({[(1Z)-1-(2-Amino-1,3-thiazol-4-yl)-2-{[(3S)-2,2-dimethyl-4-oxo-1-(sulfooxy)azetidin-3-yl]amino}-2-oxoethylidene]amino}oxy)-3-(4-{N-[2-(pyrimidin-2-ylami-no)ethyl]carbamimidoyl}phenoxy)propanoic acid] | 1 µg/mL (≈ 1.41 µM) | 8 µg/mL (≈ 11.3 µM) | 8 µg/mL (≈ 11.3 µM) | 0.25 µg/mL (≈ 0.354 µM) | 0.5 µg/mL (≈ 0.707 µM) | 1 µg/mL (≈ 1.41 µM) | 0.5 µg/mL (≈ 0.707 µM) | 32 µg/mL (≈ 45.3 µM) | 16 µg/mL (≈ 22.6 µM) | 0.5 µg/mL | 0.5 µg/mL | 0.5 µg/mL | 1 µg/mL (≈ 1.41 µM) | ≤ 0.063 µg/mL | 16 µg/mL (≈ 22.6 µM) | 8 µg/mL (≈ 11.3 µM) | 32 µg/mL (≈ 45.3 µM) | 0.25 µg/mL (≈ 0.354 µM) | 8 µg/mL (≈ 11.3 µM) | ≤ 0.063 µg/mL | 
